{"source": "patent US20060205949A1", "about": "“Crystalline forms of a biphenyl compound” (THERAVANCE, INC., priority 2005, published 2006)", "key": {"[1]": {"molecular_target": "T1, hM2 receptor (CHO-K1 cells) (Homo sapiens, UniProt P08172)", "T1 construct": "expressed in transfected cells; host or cells: CHO-K1 cells", "T1 sequence (P08172 1-466)": "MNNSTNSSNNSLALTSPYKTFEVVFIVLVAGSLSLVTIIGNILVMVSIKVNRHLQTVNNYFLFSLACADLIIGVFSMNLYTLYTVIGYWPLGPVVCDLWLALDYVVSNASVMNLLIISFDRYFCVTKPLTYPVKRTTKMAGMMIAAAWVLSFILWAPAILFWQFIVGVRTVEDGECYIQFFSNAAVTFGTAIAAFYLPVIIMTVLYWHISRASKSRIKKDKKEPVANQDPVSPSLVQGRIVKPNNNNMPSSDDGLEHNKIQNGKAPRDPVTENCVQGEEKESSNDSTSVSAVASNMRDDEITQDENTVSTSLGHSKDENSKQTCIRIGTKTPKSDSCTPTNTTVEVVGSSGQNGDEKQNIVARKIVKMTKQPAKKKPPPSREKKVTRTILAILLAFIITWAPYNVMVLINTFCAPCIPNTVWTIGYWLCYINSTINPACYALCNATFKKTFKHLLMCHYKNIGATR", "assay": "Blockade of agonist-mediated inhibition of cAMP accumulation", "assay_type": "cell-based", "settings": "CHO-K1 cells expressing the hM2 receptor; this or a similar assay; read-out: Ki value for blockade of oxotremorine-inhibition of forskolin-mediated cAMP accumulation", "method": "In this assay, the functional potency of a test compound was determined by measuring the ability of the test compound to block oxotremorine-inhibition of forskolin-mediated cAMP accumulation in CHO-K1 cells expressing the hM2 receptor. cAMP assays were performed in a radioimmunoassay format using the Flashplate Adenylyl Cyclase Activation Assay System with ^125I-cAMP (NEN SMP004B, PerkinElmer Life Sciences Inc., Boston, Mass.), according to the manufacturer's instructions.\nCells were rinsed once with dPBS and lifted with Trypsin-EDTA solution (0.05% trypsin/0.53 mM EDTA) as described in the Cell Culture and Membrane Preparation section above. The detached cells were washed twice by centrifugation at 650×g for five minutes in 50 mLs dPBS. The cell pellet was then re-suspended in 10 mL dPBS, and the cells were counted with a Coulter ZI Dual Particle Counter (Beckman Coulter, Fullerton, Calif.). […]\nTo measure the ability of a test compound to block oxotremorine-inhibited AC activity, 25 μL forskolin and oxotremorine (25 μM and 5 μM final concentrations, respectively, diluted in dPBS) 25 μL diluted test compound, and 50 μL cells were added to remaining assay wells. […] Plates were sealed, incubated overnight at room temperature and counted the next morning on a PerkinElmer TopCount liquid scintillation counter (PerkinElmer Inc., Wellesley, Mass.). […]"}, "hM3 receptor (CHO cells)": {"molecular_target": "T2, hM3 receptor (CHO cells) (Homo sapiens, UniProt P20309)", "T2 construct": "expressed in transfected cells", "T2 sequence (P20309 whole entry)": "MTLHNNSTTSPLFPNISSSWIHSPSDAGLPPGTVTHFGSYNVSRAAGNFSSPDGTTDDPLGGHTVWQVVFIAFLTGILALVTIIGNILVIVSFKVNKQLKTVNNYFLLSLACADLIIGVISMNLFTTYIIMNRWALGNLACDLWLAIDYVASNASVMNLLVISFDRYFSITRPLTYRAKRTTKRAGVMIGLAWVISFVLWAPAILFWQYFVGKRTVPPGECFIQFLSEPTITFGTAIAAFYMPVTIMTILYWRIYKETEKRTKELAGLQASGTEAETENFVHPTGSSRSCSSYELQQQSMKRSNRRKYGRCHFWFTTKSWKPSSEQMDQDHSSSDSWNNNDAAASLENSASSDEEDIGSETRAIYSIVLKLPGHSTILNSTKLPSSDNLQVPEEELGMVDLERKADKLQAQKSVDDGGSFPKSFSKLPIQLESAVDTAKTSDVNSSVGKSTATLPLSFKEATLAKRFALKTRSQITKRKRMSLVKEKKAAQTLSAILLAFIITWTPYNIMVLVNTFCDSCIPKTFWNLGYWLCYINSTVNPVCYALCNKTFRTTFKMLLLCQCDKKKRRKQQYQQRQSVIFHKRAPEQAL", "assay": "Blockade of agonist-mediated calcium release via FLIPR", "assay_type": "cell-based", "settings": "CHO cells stably expressing the hM3 receptor, this or a similar assay", "from_the_text": "Muscarinic receptor subtypes (M1, M3 and M5 receptors), which couple to Gq proteins, activate the phospholipase C (PLC) pathway upon agonist binding to the receptor. As a result, activated PLC hydrolyzes phosphatyl inositol diphosphate (PIP2) to diacylglycerol (DAG) and […] (IP3), which in turn generates calcium release from intracellular stores, i.e., endoplasmic and sarcoplasmic reticulum. The FLIPR (Molecular Devices, Sunnyvale, Calif.) assay capitalizes on this increase in intracellular calcium by using a calcium sensitive dye (Fluo-4AM, Molecular Probes, Eugene, Oreg.) that fluoresces when free calcium binds. This fluorescence event was measured in real time by the FLIPR, which detected the change in fluorescence from a monolayer of cells cloned with human M1 and M3, and chimpanzee M5 receptors. Antagonist potency was determined by the ability of antagonists to inhibit agonist-mediated increases in intracellular calcium.\nFor FLIPR calcium stimulation assays, CHO cells stably expressing the hM1, hM3 and cM5 receptors were seeded into 96-well FLIPR plates the night before the assay was done. […]\nTo determine antagonist potency, the dose-dependent stimulation of intracellular Ca^2+ release for oxotremorine was first determined so that antagonist potency can later be measured against oxotremorine stimulation at an EC90 concentration. […]"}}}
{"compound": "O=C(CCN1CCC(OC(=O)Nc2ccccc2-c2ccccc2)CC1)NCCCCCNCc1ccc(O)cc1", "note": "[compound of formula I, biphenyl-2-ylcarbamic acid 1-{2-[5-(4-hydroxybenzylamino)pentylcarbamoyl]ethyl}piperidin-4-yl ester]", "values": [{"measurement": "Ki", "setting": "[1]", "value": "< 10", "unit": "nM"}, {"measurement": "Ki", "setting": "hM3 receptor (CHO cells)", "value": "< 10", "unit": "nM"}]}
